Target: ClbQ (Escherichia coli, UniProt Q0P7K7)
Assay: DTNB-based continuous spectrophotometric thioesterase assay
Assay type: biochemical
Settings: 100 mM Tris HCl, pH 7.4, 20 mM NaCl, 100 uM DTNB, 100 nM ClbQ, 37 °C

Compound | DTNB-based continuous spectrophotometric thioesterase assay (412 nm)
CC(=O)NCCSC(C)=O [acetyl-SNAC] | ClbQ has thioesterase activity with model straight-chain acyl-SNACs
CCCCCCCCCCCCCC(=O)SCCNC(C)=O [myristoyl-SNAC] | ClbQ has thioesterase activity with model straight-chain acyl-SNACs

— paper PMC5830302 (ACS chemical biology, 2017)
